# Laboratory results: patent publication US7612071B2, “Compositions and methods employing aminopterin” (Syntrix Biosystems, Inc., priority 2004, dated 2009)
# Read-outs that look alike come from different tables or passages of the source.
# Tests used:
# [1] = test system: standard and high-risk ALL; details: for Toxicity Component: Antifolate dose causing 5.8% of the population to have the toxicity: Elevations in liver enzymes >5 times normal (severe hepatotoxicity)
# [2] = MTX 15-25 mg/m^2, pediatric patients, n=22, prior art; cited from earlier work
# [3] = mice, 4 weekly ip doses (aminopterin 0.03 mg/kg, methotrexate 0.3 mg/kg); days 1 and 22 after last dose
# [4] = MTX 15-25 mg/m^2 PO, n=22, prior art; cited from earlier work
# [5] = MTX 15-25 mg/m^2 PO, n=38, prior art; cited from earlier work
# [6] = oral doses greater than about 7.5 mg/m^2; cited from earlier work
# [7] = AMT 2 mg/m^2 PO x 2 (n=75), MTX 25 mg/m^2 PO x 4 (n=41)
# [8] = AMT 2 mg/m^2 PO x 2 (n=81), MTX 25 mg/m^2 PO x 4 (n=42)
# [9] = AMT 2 mg/m^2 PO x 2 (n=104), MTX 25 mg/m^2 PO x 4 (n=63)
structure (smiles),measurement,setting,value
"CN(Cc1cnc2nc(N)nc(N)c2n1)c1ccc(C(=O)N[C@@H](CCC(=O)O)C(=O)O)cc1 [MTX, methotrexate, reference compound]","Event-free survival (EFS) at 24-months, Kaplan Meier","[1]; 25 high risk patients receiving aminopterin, standard risk patients receiving methotrexate",86%
same,"Coefficient of variation of toxicity, absolute neutrophil count in consolidation",[1]; [7],85%
same,Mean absolute neutrophil count in consolidation,[1]; [7],1919 cells/μL
same,"Coefficient of variation of toxicity, platelet counts in consolidation",[1]; [8],47%
same,Mean platelet counts in consolidation,[1]; [8],312 cells × 10^3/μL
same,"Coefficient of variation of toxicity, level of liver enzymes above normal",[1]; [9],36%
same,Mean level of liver enzymes above normal,[1]; [9],177 IU/L ALT
same,"Coefficient of variation of toxicity, level of liver enzymes above normal","[1]; AMT 2 mg/m^2 PO x 2 (n=104), MTX 25 mg/m^2 PO x 4 (n=63), listed as methotrexate",36%
same,Toxicity Component: Antifolate dose with same toxicity as MTX at 100 mg/m^2/wk,[1]; Any elevation of liver enzymes,100 mg/m^2/wk
same,Toxicity Component: Antifolate dose causing 5.8% of the population to have the toxicity,[1],<100 mg/m^2/wk
same,Toxicity Component: Antifolate dose causing 5.8% of the population to have the toxicity,[1]; listed as methotrexate,less than 100 mg/m^2/wk
same,Toxicity Component: Antifolate dose with same toxicity as MTX at 100 mg/m^2/wk,[1]; Hospital admissions,100 mg/m^2/wk
same,Toxicity Component: Antifolate dose with same toxicity as MTX at 100 mg/m^2/wk,[1]; Mucositis,100 mg/m^2/wk
same,Toxicity Component: Antifolate dose with same toxicity as MTX at 100 mg/m^2/wk,[1]; Myelosuppression,100 mg/m^2/wk
same,Toxicity Component: Antifolate dose with same toxicity as MTX at 100 mg/m^2/wk,[1]; Neutropenia,100 mg/m^2/wk
same,Toxicity Component: Antifolate dose with same toxicity as MTX at 100 mg/m^2/wk,[1]; Thrombocytopenia,100 mg/m^2/wk
same,Toxicity Component: Antifolate dose with same toxicity as MTX at 100 mg/m^2/wk,[1]; Treatment interruptions,100 mg/m^2/wk
same,Toxicity Component: Antifolate dose with same toxicity as MTX at 100 mg/m^2/wk,[1]; eAMT and eMTX (marrow exposure),100 mg/m^2/wk
same,Interpatient oral bioavailability (%),[2],44%
same,Maximum (%) oral bioavailability,[2],95%
same,Minimum (%) oral bioavailability,[2],6%
same,"antifolate content in liver, aminopterin vs methotrexate",[3],no different
same,Interpatient coefficient of variation of oral bioavailability,[4],59%
same,Mean intrapatient coefficient of variation of oral bioavailability,[5],34%
same,oral bioavailability,[6],≤ 44%
